Assays:
[1] = tested on: HT29 human colon cancer; assay: In vivo efficacy, HT29 xenograft model; parameters: species or system mouse; conditions: data not shown
Description: (§1) A program of in vivo efficacy studies was performed to assess the activity of SRA737 in combination with genotoxic chemotherapy and targeted agents, and as monotherapy.
(§2) One of these models also carried a MYCN amplification. A fourth HGSOC PDX model with partial resistance to PARPi was also sensitive to high dose SRA737 monotherapy.

[2] = Phase 1 clinical trial, SRA737 in combination with gemcitabine dose escalation; type: in vivo; conditions: human, plasma, oral, 20 mg, Day −7, mean, n = 8-10
[3] = GLP 28-day repeat oral dose toxicity and toxicokinetics, monkey; type: in vivo; conditions: for AUC(0-t) / Cmax / half-life: po, daily dosing for 28 days
Excerpt: Reference source not found.6.

[4] = target: CYP 2C19 (Homo sapiens, UniProt P33261); assay: CYP inhibition, 2C19; type: in vitro ADME; conditions: highest concentration investigated
[5] = Excretion in urine and feces, mice; type: in vivo, mouse; conditions: 24-hour collection
Description: The excretion of SRA737 has been studied in mice and rats administered SRA737 at either 5 mg/kg IV or 10 mg/kg orally. Urine and feces were collected for a 24-hour period after dosing. In mice, renal excretion of intact SRA737 was consistently low (less than 10% of dose) after both oral and IV administration. Following IV administration of SRA737, less than 8% of the dose was recovered as intact drug in the feces while after oral administration this figure was less than 3%. Excretion of intact SRA737 was lower in the rat than in the mouse with <1% of dose excreted renally over 24 hours and less than 1.5% of dose excreted into the feces over 24 hours.

[6] = tested on: patient-derived bladder carcinoma; assay: In vivo efficacy, patient-derived bladder carcinoma model; parameters: species or system mouse; conditions: in combination with standard-dose gemcitabine; data not shown
Description: as §1, §2

[7] = tested on: human hepatocytes; assay: Stability and metabolites in cryopreserved hepatocytes, human; type: in vitro ADME
Description: (§3) The formation of SRA737-related metabolites was determined in cryopreserved hepatocytes from human, mouse, rat, dog, minipig and monkey samples after incubation with SRA737 at a nominal concentration of 10 μM for up to 4 hours. […] In the human hepatocyte preparation, approximately 67% of the parent remained after 4 hours of incubation compared to 75% and 7% in the rat and minipig preparations, respectively. Eight human SRA737 metabolites were observed. All SRA737 metabolites formed by human hepatocytes were also formed by monkey hepatocytes. Six metabolites were present at equal or greater abundance in the monkey.

[8] = target: CYP 3A4 (Homo sapiens, UniProt P08684); assay: CYP inhibition, 3A4; type: in vitro ADME; conditions: highest concentration investigated
[9] = Three-cycle combination toxicity study with gemcitabine and cisplatin, mouse; type: in vivo; conditions: mice; SRA737 with IV gemcitabine and cisplatin, intermittent schedule over 18 days
Excerpt: Clinical combination of SRA737 and gemcitabine in some cases therefore elicited exacerbated hematological and GI toxicities.

[10] = tested on: CYP1A2; assay: CYP1A2 induction in vitro; type: in vitro ADME; conditions: positive control omeprazole, concentration dependent
[11] = tested on: rat hepatocytes; assay: Stability in cryopreserved hepatocytes, rat; type: in vitro ADME; conditions: 10 μM, after 4 hours of incubation
Description: as §3

[12] = Caco-2 permeability assay; type: in vitro ADME; conditions: human
Description: The membrane permeability of SRA737 was assessed in the parallel artificial membrane permeability assay (PAMPA) and Caco-2 assays. Permeability in the PAMPA assay was classified as low.

[13] = tested on: MC38; assay: In vivo efficacy, MC38 syngeneic mouse model; conditions: in combination with a PD1/PD-L1 inhibitor; data not shown
Description: as §1, §2

[14] = Single dose PK, monkey; type: in vivo
Description: The PK of SRA737 have been determined in the mouse, rat, dog and monkey following oral and IV administration (Table 3). […] An acceptable terminal elimination t1/2 was also observed in each species. […] The plasma protein binding of SRA737 at 1 and 10 μM was examined in mouse, minipig, monkey and human plasma using ultracentrifugation and in dog plasma (10 μM) using rapid equilibrium dialysis.

[15] = tested on: Pan02; assay: In vivo efficacy, Pan02 syngeneic mouse model; conditions: in combination with a PD1/PD-L1 inhibitor; data not shown
Description: as §1, §2

[16] = tested on: HGSOC PDX models harboring CCNE1 amplifications accompanied by TP53 mutations; assay: In vivo efficacy, HGSOC PDX models with CCNE1 amplifications; parameters: species or system mouse; conditions: single agent; several models; data not shown
Description: as §1, §2

[17] = in vivo, Monkey Female, 2 mg/kg/day
[18] = in vivo, Monkey Female, 10 mg/kg/day
[19] = in vivo, Monkey Female, 20 mg/kg/day (NOAEL)
[20] = in vivo, Monkey Male, 2 mg/kg/day
[21] = in vivo, Monkey Male, 10 mg/kg/day
[22] = in vivo, Monkey Male, 20 mg/kg/day (NOAEL)
[23] = in vivo, Monkey IV 1 mg/kg single dose
[24] = in vivo, Monkey oral 2 mg/kg single dose
[25] = in vivo, Monkey oral 10 mg/kg single dose

Chain of CYP 2C19 (P33261 whole entry): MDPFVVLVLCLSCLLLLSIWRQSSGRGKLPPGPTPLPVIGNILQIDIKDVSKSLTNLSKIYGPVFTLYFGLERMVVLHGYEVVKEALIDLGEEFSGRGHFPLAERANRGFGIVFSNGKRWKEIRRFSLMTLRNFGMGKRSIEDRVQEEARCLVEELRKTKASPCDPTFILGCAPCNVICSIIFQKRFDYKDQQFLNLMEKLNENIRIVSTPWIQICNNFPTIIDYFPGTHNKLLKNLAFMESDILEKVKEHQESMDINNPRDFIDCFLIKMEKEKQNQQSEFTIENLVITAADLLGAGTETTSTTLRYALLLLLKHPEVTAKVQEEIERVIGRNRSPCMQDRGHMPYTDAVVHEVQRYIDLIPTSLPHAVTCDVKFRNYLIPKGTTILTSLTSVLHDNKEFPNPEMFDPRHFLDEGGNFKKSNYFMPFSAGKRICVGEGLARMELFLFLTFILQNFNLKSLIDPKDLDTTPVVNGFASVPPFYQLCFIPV
Chain of CYP 3A4 (P08684 whole entry): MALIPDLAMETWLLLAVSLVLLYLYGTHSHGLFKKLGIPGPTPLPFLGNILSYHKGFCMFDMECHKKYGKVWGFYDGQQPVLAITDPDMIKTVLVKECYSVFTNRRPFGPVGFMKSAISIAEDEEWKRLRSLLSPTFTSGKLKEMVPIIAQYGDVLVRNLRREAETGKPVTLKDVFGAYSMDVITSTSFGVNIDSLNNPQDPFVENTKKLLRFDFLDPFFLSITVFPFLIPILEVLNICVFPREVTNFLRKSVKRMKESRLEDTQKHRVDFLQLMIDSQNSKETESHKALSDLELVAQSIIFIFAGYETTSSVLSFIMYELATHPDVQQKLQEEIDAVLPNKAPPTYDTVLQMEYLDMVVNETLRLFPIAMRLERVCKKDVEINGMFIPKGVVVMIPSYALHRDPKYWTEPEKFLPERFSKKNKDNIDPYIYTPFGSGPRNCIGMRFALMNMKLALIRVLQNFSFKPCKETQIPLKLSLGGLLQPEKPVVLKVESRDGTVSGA

## N#Cc1cnc(Nc2cc(NCC3CNCCO3)c(C(F)(F)F)cn2)cn1 (centres unmarked) [SRA737, 5-[[4-[[morpholin-2-yl]methylamino]-5-(trifluoromethyl)-2-pyridyl]amino]pyrazine-2-carbonitrile]
[1]; in combination with standard-dose gemcitabine
  antitumor activity: Significant, dose-dependent antitumor activity
[1]; with irinotecan
  synergy: Synergy
[1]; with low-dose gemcitabine
  synergy: Synergy
[2]
  Cmax: 31.3 ng/mL
  Tmax: 1.9 h
[3]; [17]
  AUC(0-t): 2580 ng·h/mL
  Cmax: 519 ng/mL
  half-life: 8.74 h
[3]; [18]
  AUC(0-t): 12900 ng·h/mL
  Cmax: 1870 ng/mL
  half-life: 6.58 h
[3]; [19]
  AUC(0-t): 24200 ng·h/mL
  Cmax: 2320 ng/mL
  half-life: 6 h
[3]; [20]
  AUC(0-t): 3240 ng·h/mL
  Cmax: 365 ng/mL
  half-life: 6.73 h
[3]; [21]
  AUC(0-t): 17900 ng·h/mL
  Cmax: 2070 ng/mL
  half-life: 8.34 h
[3]; [22]
  AUC(0-t): 20700 ng·h/mL
  Cmax: 3170 ng/mL
  half-life: 6.84 h
[3]; in vivo, monkey, 28-day repeat oral dose, highest dose tested
  NOAEL at 28 days: 20 mg/kg/day
[3]; monkey, 28-day repeat oral dose, highest dose tested
  NOAEL: 240 mg/m^2/day
[3]; pivotal monkey toxicity study
  toxicological findings: absence of toxicological findings
[4]
  IC50: 10 to 50 µM
[5]; IV 5 mg/kg
  dose recovered as intact drug in the feces: less than 8 % of the dose
[5]; after both oral (10 mg/kg) and IV (5 mg/kg)
  renal excretion of intact SRA737: less than 10 % of dose
[5]; oral 10 mg/kg
  dose recovered as intact drug in the feces: less than 3 % of the dose
[6]
  antitumor activity: Significant, dose-dependent antitumor activity
[7]; compared with mouse, rat, dog, minipig and monkey hepatocytes
  human-specific metabolites: No human-specific metabolites
[7]; human hepatocytes, 10 μM, up to 4 hours
  number of human SRA737 metabolites observed: Eight
[7]; human hepatocytes, 10 μM, after 4 hours of incubation
  parent remained: approximately 67%
[8]
  IC50: 10 to 50 µM
[9]
  findings exacerbated by SRA737 over the cisplatin/gemcitabine control group: reversible marrow toxicity, consequent splenomegaly, and the high-dose intestinal observations
[10]
  induction of CYP1A2: < 10 % positive control
[11]
  parent remained: 75%
[12]
  Papp at 10 μM: 20.7 ± 9.1 ×10⁻⁶ cm/s
[12]; read-out: efflux ratio (A>B/B>A)
  efflux ratio at 10 μM: 0.8
[13]
  antitumor activity: Significant antitumor activity
[14]; Monkey oral 2 mg/kg single dose
  Foral: 90%
[14]; Monkey oral 10 mg/kg single dose
  Foral: 104%
[14]; [23]
  AUC(0-t): 1520 ng·h/mL
  half-life: 5.3 h
[14]; [24]
  AUC(0-t): 2730 ng·h/mL
  Cmax: 500 ng/mL
  Tmax: 1 to 2 h
  half-life: 5 h
[14]; [25]
  AUC(0-t): 15800 ng·h/mL
  Cmax: 2640 ng/mL
  Tmax: 2 to 4 h
  half-life: 5.1 h
[14]; in vivo, monkey, oral 2 and 10 mg/kg, read-out: absolute oral bioavailability (% F)
  bioavailability: 90 to 104%
[15]
  antitumor activity: Significant antitumor activity
[16]
  antitumor activity: Significant antitumor activity

Reference: patent US20200397796A1, “METHODS OF TREATMENT OF CANCER COMPRISING CHK1 INHIBITORS” (SIERRA ONCOLOGY, INC., priority 2018, published 2020)
